Data taken from patent US20230286958A1, “PLASMA KALLIKREIN INHIBITORS” (Merck Sharp & Dohme LLC, priority 2020, published 2023).

Tests used:
[1] = target: Human plasma kallikrein (Homo sapiens (Human), UniProt P03952); experiment: Kallikrein Assay (fluorogenic substrate Acetyl-K-P-R-AFC); type: biochemical; conditions: Plasma Kallikrein (PKal)
Method in brief: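 Ki is derived from IC50 with the Cheng-Prusoff equation, and IC50 from the inflection point of a four-parameter logistic curve. The rate of AFC release is read with 0.5 nM purified enzyme and […] substrate at room temperature or 37 °C.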

[2] = target: human Factor XIa (Homo sapiens (Human), UniProt P03951); experiment: Factor XIa Assay (fluorogenic substrate GPR-AFC); type: biochemical; conditions: Factor XIa (FXIa)
human Factor XIa, sequence (P03951 388-625 limits assumed): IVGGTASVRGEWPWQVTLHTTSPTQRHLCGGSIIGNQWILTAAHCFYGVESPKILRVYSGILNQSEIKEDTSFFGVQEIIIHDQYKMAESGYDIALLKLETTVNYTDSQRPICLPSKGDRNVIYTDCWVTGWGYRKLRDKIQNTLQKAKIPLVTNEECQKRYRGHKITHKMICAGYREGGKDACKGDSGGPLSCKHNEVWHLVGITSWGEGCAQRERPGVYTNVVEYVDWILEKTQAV
human Factor XIa, sequence (P03951 19-387 partner limits assumed): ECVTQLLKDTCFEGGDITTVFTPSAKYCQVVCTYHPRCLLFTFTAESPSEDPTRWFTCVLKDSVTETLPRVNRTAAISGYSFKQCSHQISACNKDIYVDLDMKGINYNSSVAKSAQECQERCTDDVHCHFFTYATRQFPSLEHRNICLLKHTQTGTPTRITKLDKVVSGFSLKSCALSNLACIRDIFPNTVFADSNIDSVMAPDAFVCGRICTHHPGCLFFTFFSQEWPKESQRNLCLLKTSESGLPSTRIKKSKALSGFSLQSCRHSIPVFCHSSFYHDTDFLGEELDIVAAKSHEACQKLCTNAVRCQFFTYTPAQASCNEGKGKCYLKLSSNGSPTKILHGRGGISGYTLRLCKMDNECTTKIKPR

Human plasma kallikrein, sequence (P03952 391-638): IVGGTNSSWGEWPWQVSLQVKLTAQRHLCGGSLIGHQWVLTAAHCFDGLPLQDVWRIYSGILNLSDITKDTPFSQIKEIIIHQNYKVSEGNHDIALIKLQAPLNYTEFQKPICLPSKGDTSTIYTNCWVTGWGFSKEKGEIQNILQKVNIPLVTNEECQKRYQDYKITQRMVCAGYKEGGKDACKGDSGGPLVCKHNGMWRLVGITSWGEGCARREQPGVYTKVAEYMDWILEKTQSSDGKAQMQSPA
Human plasma kallikrein, sequence (P03952 20-390 partner): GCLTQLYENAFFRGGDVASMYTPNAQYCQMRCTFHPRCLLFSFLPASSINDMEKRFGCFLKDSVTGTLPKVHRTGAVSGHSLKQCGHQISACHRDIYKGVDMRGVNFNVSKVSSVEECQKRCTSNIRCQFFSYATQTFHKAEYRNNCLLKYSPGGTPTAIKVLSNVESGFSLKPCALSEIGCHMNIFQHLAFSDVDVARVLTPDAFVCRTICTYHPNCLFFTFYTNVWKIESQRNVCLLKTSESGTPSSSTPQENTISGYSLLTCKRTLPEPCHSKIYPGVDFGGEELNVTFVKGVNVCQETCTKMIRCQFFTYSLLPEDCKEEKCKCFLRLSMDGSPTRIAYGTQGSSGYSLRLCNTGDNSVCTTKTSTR

IC50 [1] [nM]	IC50 [2] [nM]	Structure (SMILES)
1.1	1330	Cc1cc(C(C)n2cc(NC(=O)c3nc(-c4c(C(F)F)ccc(Cl)c4F)cnc3C(C)O)cn2)nnc1N1C[C@H]2C[C@H]2C1=O (single isomer, unassigned) [Example 230, 6-(3-Chloro-6-(difluoromethyl)-2-fluorophenyl)-3-((S or R)-1-hydroxyethyl)-N-(1-((S or R)-1-(5-methyl-6-((1R,5S)-2-oxo-3-azabicyclo[3.1.0]hexan-3-yl)pyridazin-3-yl)ethyl)-1H-pyrazol-4-yl)pyrazine-2-carboxamide]
2.6	734	CCc1ncc(-c2c(C(F)F)ccc(Cl)c2F)nc1C(=O)Nc1cnn(Cc2cnc(N3C[C@H]4C[C@H]4C3=O)c3c2OCO3)c1 [Example 255, 6-(3-Chloro-6-(difluoromethyl)-2-fluorophenyl)-3-ethyl-N-(1-((4-((1R,5S)-2-oxo-3-azabicyclo[3.1.0]hexan-3-yl)-[1,3]dioxolo[4,5-c]pyridin-7-yl)methyl)-1H-pyrazol-4-yl)pyrazine-2-carboxamide]
14.9	> 10000	COCc1ncc(-c2c(C(F)F)ccc(Cl)c2F)nc1C(=O)Nc1cnn(C2(c3cnc(N4C[C@H]5C[C@H]5C4=O)c(C)n3)CC2)c1 [Example 221, 6-(3-Chloro-6-(difluoromethyl)-2-fluorophenyl)-3-(methoxymethyl)-N-(1-(1-(6-methyl-5-((1R,5S)-2-oxo-3-azabicyclo[3.1.0]hexan-3-yl)pyrazin-2-yl)cyclopropyl)-1H-pyrazol-4-yl)pyrazine-2-carboxamide]
12.7	1050	Cc1cc(Cn2cc(NC(=O)c3nc(-c4c(C(F)F)ccc(Cl)c4F)cnc3C(C)O)cn2)nnc1N1C[C@H]2C[C@H]2C1=O (single isomer, unassigned) [Example 208]
18.2	765	Cc1nc(N2C[C@H]3C[C@H]3C2=O)ncc1C(C)n1cc(NC(=O)c2nc(-c3c(C(F)F)ccc(Cl)c3F)cnc2CO)cn1 (single isomer, unassigned) [Example 195, 6-(3-Chloro-6-(difluoromethyl)-2-fluorophenyl)-3-(hydroxymethyl)-N-(1-((R or S)-1-(4-methyl-2-((1R,5S)-2-oxo-3-azabicyclo[3.1.0]hexan-3-yl)pyrimidin-5-yl)ethyl)-1H-pyrazol-4-yl)pyrazine-2-carboxamide]
1.8	194	Cc1cc(C(C)n2cc(NC(=O)c3nc(-c4c(C(F)F)ccc(Cl)c4F)cnc3C(C)O)cn2)nnc1N1C[C@H]2C[C@H]2C1=O (single isomer, unassigned) [Example 232, 6-(3-Chloro-6-(difluoromethyl)-2-fluorophenyl)-3-((S or R)-1-hydroxyethyl)-N-(1-((R or S)-1-(5-methyl-6-((1R,5S)-2-oxo-3-azabicyclo[3.1.0]hexan-3-yl)pyridazin-3-yl)ethyl)-1H-pyrazol-4-yl)pyrazine-2-carboxamide]
7.8	> 10000	Cc1ncc(-c2c(C(F)F)ccc(Cl)c2F)nc1C(=O)Nc1cnn(Cc2ncc(N3C[C@H]4C[C@H]4C3=O)c(C)c2F)c1 [Example 215, 6-(3-Chloro-6-(difluoromethyl)-2-fluorophenyl)-N-(1-((3-fluoro-4-methyl-5-((1R,5S)-2-oxo-3-azabicyclo[3.1.0]hexan-3-yl)pyridin-2-yl)methyl)-1H-pyrazol-4-yl)-3-methylpyrazine-2-carboxamide]
3.8	167	Cc1cc(Cn2cc(NC(=O)c3nc(-c4c(C(F)F)ccc(Cl)c4F)cnc3C(C)O)cn2)nnc1N1C[C@H]2C[C@H]2C1=O (single isomer, unassigned) [Example 209]

Further lines, the compound ahead of its results:

Structure (SMILES)	IC50 [1] [nM]	IC50 [2] [nM]
CC(c1cnc(N2C[C@H]3C[C@H]3C2=S)nc1)n1cc(NC(=O)c2cncc(-c3c(C(F)F)ccc(Cl)c3F)n2)cn1 (single isomer, unassigned) [Example 32, 6-(3-Chloro-6-(difluoromethyl)-2-fluorophenyl)-N-(1-((R or S)-1-(2-((1R,5S)-2-thioxo-3-azabicyclo[3.1.0]hexan-3-yl)pyrimidin-5-yl)ethyl)-1H-pyrazol-4-yl)pyrazine-2-carboxamide]	16.4	> 10000
Cc1cc(Cn2cc(NC(=O)c3cncc(-c4c(C(F)F)ccc(Cl)c4F)n3)cn2)ncc1N1C[C@H]2C[C@H]2C1=O [Example 65, 6-(3-Chloro-6-(difluoromethyl)-2-fluorophenyl)-N-(1-((4-methyl-5-((1R,5S)-2-oxo-3-azabicyclo[3.1.0]hexan-3-yl)pyridin-2-yl)methyl)-1H-pyrazol-4-yl)pyrazine-2-carboxamide]	35.7	> 10000
CC(c1ncc(N2C[C@H]3C[C@H]3C2=O)cc1F)n1cc(NC(=O)c2cncc(-c3c(C(F)F)ccc(Cl)c3F)n2)cn1 (single isomer, unassigned) [Example 146, 6-(3-Chloro-6-(difluoromethyl)-2-fluorophenyl)-N-(1-((R or S)-1-(3-fluoro-5-((1R,5S)-2-oxo-3-azabicyclo[3.1.0]hexan-3-yl)pyridin-2-yl)ethyl)-1H-pyrazol-4-yl)pyrazine-2-carboxamide]	9.8	> 10000
Cc1nc(N2C[C@H]3C[C@H]3C2=O)ncc1Cn1cc(NC(=O)c2nc(-c3c(C(F)F)ccc(Cl)c3F)cnc2C)nn1 [Example 183, 6-(3-Chloro-6-(difluoromethyl)-2-fluorophenyl)-3-methyl-N-(1-((4-methyl-2-((1R,5S)-2-oxo-3-azabicyclo[3.1.0]hexan-3-yl)pyrimidin-5-yl)methyl)-1H-1,2,3-triazol-4-yl)pyrazine-2-carboxamide]	30.6	> 10000
Cc1ncc(-c2c(OC(F)F)ccc(Cl)c2F)nc1C(=O)Nc1cnn(C(C)c2cnc(N3C[C@H]4C[C@H]4C3=O)c(F)c2C)c1 (single isomer, unassigned) [Example 129, 6-(3-Chloro-6-(difluoromethoxy)-2-fluorophenyl)-N-(1-((S or R)-1-(5-fluoro-4-methyl-6-((1R,5S)-2-oxo-3-azabicyclo[3.1.0]hexan-3-yl)pyridin-3-yl)ethyl)-IH-pyrazol-4-yl)-3-methylpyrazine-2-carboxamide]	4.3	3210
Cc1cc(C(C)n2cc(NC(=O)c3nc(-c4c(C#N)ccc(Cl)c4F)cnc3C)cn2)cnc1N1C[C@H]2C[C@H]2C1=O (single isomer, unassigned) [Example 140, 6-(3-Chloro-6-cyano-2-fluorophenyl)-3-methyl-N-(1-((R or S)-1-(5-methyl-6-((IR,5S)-2-oxo-3-azabicyclo[3.1.0]hexan-3-yl)pyridin-3-yl)ethyl)-1H-pyrazol-4-yl)pyrazine-2-carboxamide]	0.6	972
COc1cc(Cn2cc(NC(=O)c3cncc(-c4c(C(F)F)ccc(Cl)c4F)n3)cn2)cnc1N1C[C@H]2C[C@H]2C1=O [Example 49, 6-(3-Chloro-6-(difluoromethyl)-2-fluorophenyl)-N-(1-((5-methoxy-6-((1R,5S)-2-oxo-3-azabicyclo[3.1.0]hexan-3-yl)pyridin-3-yl)methyl)-1H-pyrazol-4-yl)pyrazine-2-carboxamide]	3.5	423
Cc1cc(C(C)n2cc(NC(=O)c3nc(-c4c(C(F)F)ccc(Cl)c4F)cnc3C)cn2)cnc1N1C[C@H]2C[C@H]2C1=O (single isomer, unassigned) [Example 120, 6-(3-Chloro-6-(difluoromethyl)-2-fluorophenyl)-3-methyl-N-(1-((R or S)-1-(5-methyl-6-((1R,5S)-2-oxo-3-azabicyclo[3.1.0]hexan-3-yl)pyridin-3-yl)ethyl)-1H-pyrazol-4-yl)pyrazine-2-carboxamide]	0.5	149
Cc1c(C(C)n2cc(NC(=O)c3cncc(-c4c(C(F)F)ccc(Cl)c4F)n3)cn2)nnc(N2C[C@H]3C[C@H]3C2=O)c1C (single isomer, unassigned) [Example 111, 6-(3-Chloro-6-(difluoromethyl)-2-fluorophenyl)-N-(1-((R or S)-1-(4,5-dimethyl-6-((1R,5S)-2-oxo-3-azabicyclo[3.1.0]hexan-3-yl)pyridazin-3-yl)ethyl)-1H-pyrazol-4-yl)pyrazine-2-carboxamide]	0.4	108
Cc1cc(C(C)n2cc(NC(=O)c3cc(-c4c(C(F)F)ccc(Cl)c4F)nnc3C)cn2)cnc1N1C[C@H]2C[C@H]2C1=O (single isomer, unassigned) [Example 122, 6-(3-Chloro-6-(difluoromethyl)-2-fluorophenyl)-3-methyl-N-(1-((R or S)-1-(5-methyl-6-((1R,5S)-2-oxo-3-azabicyclo[3.1.0]hexan-3-yl)pyridin-3-yl)ethyl)-1H-pyrazol-4-yl)pyridazine-4-carboxamide]	14.2	5260
Cc1nc(N2C[C@H]3C[C@H]3C2=O)ncc1[C@H](C)n1cc(NC(=O)c2cncc(-c3c(C(F)F)ccc(Cl)c3F)n2)cn1 [Example 22, 6-(3-Chloro-6-(difluoromethyl)-2-fluorophenyl)-N-(1-((S)-1-(4-methyl-2-((1R,5S)-2-oxo-3-azabicyclo[3.1.0]hexan-3-yl)pyrimidin-5-yl)ethyl)-1H-pyrazol-4-yl)pyrazine-2-carboxamide]	1.8	2730
Cc1ncc(-c2c(C(F)F)ccc(Cl)c2F)nc1C(=O)Nc1cnn(Cc2cnc(N3C[C@H]4C[C@H]4C3=O)c(Cl)c2)c1 [Example 7, N-(1-((5-Chloro-6-((1R,5S)-2-oxo-3-azabicyclo[3.1.0]hexan-3-yl)pyridin-3-yl)methyl)-1H-pyrazol-4-yl)-6-(3-chloro-6-(difluoromethyl)-2-fluorophenyl)-3-methylpyrazine-2-carboxamide]	1.9	527
Cc1ncc(-c2c(C(F)F)ccc(Cl)c2F)nc1C(=O)Nc1cnn(C(C)c2cnc(N3C[C@H]4C[C@H]4C3=O)nc2)c1 (single isomer, unassigned) [Example 29, 6-(3-Chloro-6-(difluoromethyl)-2-fluorophenyl)-3-methyl-N-(1-((S or R)-1-(2-((1R,5S)-2-oxo-3-azabicyclo[3.1.0]hexan-3-yl)pyrimidin-5-yl)ethyl)-1H-pyrazol-4-yl)pyrazine-2-carboxamide]	9.6	2040
